Laboratory results from the supplement of paper PMC13380429.

Experiments:
Conditions in all cases: 72 h
HepG2 [1] = assay: cell viability relative to DMSO; higher = less toxic
Vero E6 [2] = assay: as above
Calu-3 [3] = assay: as above
Caco-2 [4] = assay: as above
U2OS [5] = assay: as above
HepG2 [6] = assay: drug sensitivity score (DSS) for viability; higher = more toxic; extreme values may be limits of the assay
Vero E6 [7] = assay: as above
Calu-3 [8] = assay: as above
Caco-2 [9] = assay: as above
U2OS [10] = assay: as above
HepG2 [11] = assay: relative viability EC50 (midpoint between 100% and the lowest measured viability); higher = less toxic
Vero E6 [12] = assay: as above
Calu-3 [13] = assay: as above
Caco-2 [14] = assay: as above
U2OS [15] = assay: as above

Structure (SMILES)	cell viability (HepG2 [1]; 1 nM) [%]	cell viability (HepG2 [1]; 10 nM) [%]	cell viability (HepG2 [1]; 100 nM) [%]	cell viability (HepG2 [1]; 1000 nM) [%]	cell viability (HepG2 [1]; 10000 nM) [%]	cell viability (Vero E6 [2]; 1 nM) [%]	cell viability (Vero E6 [2]; 10 nM) [%]	cell viability (Vero E6 [2]; 100 nM) [%]	cell viability (Vero E6 [2]; 1000 nM) [%]	cell viability (Vero E6 [2]; 10000 nM) [%]	cell viability (Calu-3 [3]; 1 nM) [%]	cell viability (Calu-3 [3]; 10 nM) [%]	cell viability (Calu-3 [3]; 100 nM) [%]	cell viability (Calu-3 [3]; 1000 nM) [%]	cell viability (Calu-3 [3]; 10000 nM) [%]	cell viability (Caco-2 [4]; 1 nM) [%]	cell viability (Caco-2 [4]; 10 nM) [%]	cell viability (Caco-2 [4]; 100 nM) [%]	cell viability (Caco-2 [4]; 1000 nM) [%]	cell viability (Caco-2 [4]; 10000 nM) [%]	cell viability (U2OS [5]; 1 nM) [%]	cell viability (U2OS [5]; 10 nM) [%]	cell viability (U2OS [5]; 100 nM) [%]	cell viability (U2OS [5]; 1000 nM) [%]	cell viability (U2OS [5]; 10000 nM) [%]	drug sensitivity score (HepG2 [6])	drug sensitivity score (Vero E6 [7])	drug sensitivity score (Calu-3 [8])	drug sensitivity score (Caco-2 [9])	drug sensitivity score (U2OS [10])	relative viability EC50 (HepG2 [11]) [µM]	relative viability EC50 (Vero E6 [12]) [µM]	relative viability EC50 (Calu-3 [13]) [µM]	relative viability EC50 (Caco-2 [14]) [µM]	relative viability EC50 (U2OS [15]) [µM]
Cc1cc(O)c2c(c1)C(=O)c1cc(O)cc(O)c1C2=O [emodin]	105	96.7	105	98.5	106	103	95	97.1	100	106	93.6	104	95	94.2	102	95.4	91	92.8	93.9	97	94.2	103	93.8	101	103	0	0	0	0	0	> 10	> 10	> 10	> 10	> 10
CCOc1ccccc1OC(c1ccccc1)C1CNCCO1 (stereo not given) [reboxetine]	105	121	95.5	106	102	102	102	102	98.4	95.6	107	96.5	99.4	104	94.3	104	97.9	97.1	104	104	101	101	98.8	101	104	0	0	0	0	0	> 10	> 10	> 10	> 10	> 10
O=C(Nc1nc(-c2cc(Cl)cs2)c(N2CCN(C3CCCCC3)CC2)s1)c1cnc(N2CCC(C(=O)O)CC2)c(Cl)c1 [avatrombopag]	99.4	109	115	98	110	100	95	102	102	92	96.2	100	93.9	102	88.9	94.9	88.7	102	105	107	103	95.5	104	103	95.1	0	0	0	0	0	> 10	> 10	> 10	> 10	> 10
N[C@@]1(C(=O)O)CC[C@H]2[C@H](C(=O)O)[C@H]21 [eglumetad]	113	92.5	102	97.6	116	99	99	94.9	100	96.6	95.7	102	97.3	93.2	104	107	104	93.8	102	97.2	101	101	97.3	96.6	96	0	0	0	0	0	> 10	> 10	> 10	> 10	> 10
O=C(O)c1c2ccccc2cc2ccccc12 [9-anthracenecarboxylic-acid]	101	90.5	102	104	102	98.4	97.1	98	94.7	103	97.1	97.9	99.4	101	96	93.1	95.8	95	100	105	100	100	101	101	103	0	0	0	0	0	> 10	> 10	> 10	> 10	> 10
Cc1cccc(-c2[nH]c(C(C)(C)C)nc2-c2ccc3nccnc3c2)n1	101	95.2	103	80.5	12.9	99.3	99.4	104	98.1	81.6	106	104	109	102	87.3	104	98.1	104	91.1	29.8	96.8	101	95	89.2	79	7.9	0.7	0	5.4	1.3	1.64	> 10	> 10	2.14	> 10
Cc1nn(C)c2c1C(c1ccc(C(F)(F)F)cc1)C(C#N)=C(N)O2 (stereo not given) [BQU57]	109	97.9	103	99	102	104	104	103	101	99.7	98.7	104	98.7	108	104	94.3	93.5	95	97.1	89.2	98	101	98.8	100	102	0	0	0	0	0	> 10	> 10	> 10	> 10	> 10
